# Measured values reported in patent US10342854B2, “Leptin active peptide having cd loop and E helix region mutations, coding gene thereof, and application thereof” (SHANGHAI YUANXIN BIOCHEMICAL SCIENCE AND TECHNOLOGY CO. LTD., priority 2015, dated 2019).
# Entries after “also recorded” stand apart in the source; their conditions may differ.
# Legend:
# 3T3-L1 preadipocytes = assay: MTT lipid-lowering (adipocyte-degrading) activity analysis on 3T3-L1 preadipocyte line; assay type: cell-based; conditions: for adipocyte-degrading (adipocyte lysis) activity compared with positive controls H-LEP and Ros: preadipocytes stage, early differentiation stage D0-D2 and mature adipocyte stage D9, PEP-E 10^−6M, Ros 0.5 μM
# Description: Lipid degradation activity of the synthesized leptin active peptide having CD-loop and helix E region mutations is analyzed on a cellular level by taking a 3T3-L1 preadipocyte line as a model. Specific operations are as follows:
# a. leptin active peptide having CD-loop and helix E region mutations (PEP-E): diluted to 10^−3M with purified water and preserved at −20 degree C. for later use. After an experiment is started, working concentrations have 3 concentration gradients, that is, 10^−6M, 10−9M and 10^−11M;
# b. positive control 1: H-LEP recombinant human-derived leptin protein (10221-HNAE, Beijing Sino Biological Inc.), diluted to 10^−6M with purified water and preserved at −20 degree C. for later use. After an experiment is started, the working concentration is 10^−9M.
# c. positive control 2: Ros rosiglitazone, R2408, Sigma), diluted to a stock solution with a concentration of 2518 μM with DMSO and preserved at −20 degree C. for later use. After an experiment is started, the stock solution is diluted to a working solution of 0.5 μM with cell culture fluid.
# d. negative control (Control): equivalent quantity of PBS
# (1) inoculating 3T3-L1 preadipocytes in coming cell bind 96-well plates (totally inoculated with 3 plates, respectively plate a, plate b and plate c), wherein the inoculation density is 4500 cells/well; and marking, and standing and culturing at 37 degree C. in a 5% CO2 incubator. Each sample of each plate is operated repeatedly for 3 times, and the whole experiment is repeated for 3 times;
# (2) continuously culturing for 48 hours after the cells are merged to 100% (enabling the cells to exit from a growth cycle, and starting induced differentiation.); and
# i, taking out the plate a, respectively adding different amounts of leptin active peptide having CD-loop and helix E region mutations (PEP-E) to enable the working concentrations to be respectively 3 concentration gradients, that is, 10^−6M, 10^−9M and […], setting 2 positive controls, a negative control (PBS) and a blank control (3 repeated holes are set for each sample), and continuously standing and culturing at 37 degree C. in the 5% CO2 incubator.
# ii, when culturing to 45 hours (that is, 3 hours before the end of drug treatment), taking out the plate a, and measuring MTT (preadipocytes). Specific operations: adding 20 μL of 5 mg/mL of MTT solution into each well, continuously standing and culturing at 37 degree C. in the 5% CO2 incubator for 3 hours, sucking and discarding the culture solution in the wells, adding 150 μL of DMSO into each well, horizontally shaking for 10 min, detecting a light absorption value at 492 nm by a microplate reader, and drawing a growth curve. […]
# ii, when culturing to 45 hours (that is, 3 hours before the end of drug treatment), taking out the plate b, and measuring MTT (at the early differentiation stage, D0-D2). Specific operations: adding 20 μL of 5 mg/mL of MTT solution into each well; continuously standing and culturing at 37 degree C. in the 5% CO2 incubator for 3 hours, sucking and discarding the culture solution in the wells; adding 150 μL of DMSO into each well, horizontally shaking for 10 min, detecting a light absorption value at 492 nm by a microplate reader, and drawing a growth curve; […]
# [1] = cited from earlier work
substance,measurement,setting,value
"H-LEP: recombinant human-derived leptin protein (10221-HNAE, Beijing Sino Biological Inc.) [reference compound]",adipocyte lysis activity of positive control vs. negative control,"3T3-L1 preadipocytes; H-LEP 10^−9M, Ros 0.5 μM vs. PBS, P<0.05",obviously better than that of the negative control
wild type human-derived leptin protein: leptin protein given to obese patients in the first human experiment,weight loss effect in obese patients,[1]; 73 tested obese patients,most of the patients do not have an obvious weight loss effect
same,weight loss,"[1]; only 2 of 73 patients, within 24 weeks",35 pounds
SCHLHWAPGLETLDSGVQEASGY (An amino acid sequence of the leptin active peptide having CD-loop and helix E region mutations) [PEP-E],dependence of lipid-lowering activity on concentration and cell differentiation period,"3T3-L1 preadipocytes; 10^−6M, 10^−9M, 10^−11M, preadipocytes, D0-D2, D9",obvious concentration dependence and dependence in a cell differentiation period
same,adipocyte-degrading (adipocyte lysis) activity compared with positive controls H-LEP and Ros,"3T3-L1 preadipocytes; 10^−9M, 10^−11M, H-LEP 10^−9M, P<0.05",obviously better than that of the H-LEP; also recorded: obviously better than that of the Ros
same,adipocyte-degrading (adipocyte lysis) activity compared with positive controls H-LEP and Ros,"3T3-L1 preadipocytes; 10^−9M, 10^−11M, H-LEP 10^−9M, P<0.05, listed as leptin active peptide having CD-loop and helix E region mutations","obviously better than that of positive control-human-derived leptin protein (H-LEP) and a commercially available drug rosiglitazone (Ros,)"
same,lipid-lowering activity: stage and concentration of optimal effect,"3T3-L1 preadipocytes; three stages, three concentrations compared",optimal effect at the D0-D2 stage when the concentration is 10^−6M
